From patent publication US6576593B2, “Synergistic herbicidal compositions comprising herbicides from the benzoylcyclohexanedione group for use in maize corps” (Aventis CropScience GmbH, priority 2001, dated 2003)

Assays:
Avena fatua (AVENA) = assay: Herbicidal activity of A5, herbicides (B) and their combinations, visual scoring, against AVEFA; assay type: in vivo
Method: (§1) The herbicidal efficacy of the active ingredients or active ingredient mixtures was scored visually by comparing the treated plots with untreated control plots. The damage and development of all aerial plant parts was recorded. […] The score figures of in each case 4 plots were averaged. Maize plants were grown in the open on plots of from 5 to 10 m^2 in size on different soils and under various climatic conditions, the natural presence of harmful plants or seeds thereof in the soil being exploited for the experiments. […] The active ingredient or active ingredient combinations were applied post-emergence as WG, WP or EC formulations. After 2 to 8 weeks, the plants were scored visually in comparison with an untreated comparison group. […] Moreover, the herbicidal activities of the compositions according to the invention exceed the expected values calculated using Colby's formula. In contrast, the maize plants were left unharmed or virtually unharmed as a consequence of the treatment. When applying the combinations according to the invention, herbicidal effects are frequently observed on a harmful plant species which exceed the formal total of the effects of the herbicides present when these are applied by themselves. Alternatively, it is observed in some cases that a lower application rate is required for the herbicide combination in order to achieve the same effect on a harmful plant species in comparison with the individual products. […] The biological examples listed in the tables hereinbelow relate to the herbicidal activity of combinations according to the invention of the following herbicides against the harmful plants Ipomea laputifolia (IPOMEA) and Avena fatua (AVENA): […]

[1] = tested on: Ipomea laputifolia (IPOMEA); assay: Herbicidal activity of A5, herbicides (B) and their combinations, visual scoring, against IPOMEA; assay type: in vivo
Method: as §1

N#Cc1cc(Br)c(O)c(Br)c1 [Compound B2.2, bromoxynil]
pest or weed control at 140 g/ha (Avena fatua (AVENA); Avena fatua, Dosage 140 g ai/ha, read-out: Activity against AVEFA found): 20% | pest or weed control at 140 g/ha ([1]; Dosage 140 g ai/ha, read-out: Activity against IPOMEA found): 25%

CCC(CC)Nc1c([N+](=O)[O-])cc(C)c(C)c1[N+](=O)[O-] [Compound B7.1, pendimethalin]
pest or weed control at 840 g/ha (Avena fatua (AVENA); Avena fatua, Dosage 840 g ai/ha, read-out: Activity against AVEFA found): 10% | pest or weed control at 840 g/ha ([1]; Dosage 840 g ai/ha, read-out: Activity against IPOMEA found): 40%

COc1cc(OC)nc(NC(=O)NS(=O)(=O)c2ncccc2C(=O)N(C)C)n1 [Compound B5.9, nicosulfuron]
pest or weed control at 15 g/ha (Avena fatua (AVENA); Avena fatua, Dosage 15 g ai/ha, read-out: Activity against AVEFA found): 40% | pest or weed control at 15 g/ha ([1]; Dosage 15 g ai/ha, read-out: Activity against IPOMEA found): 20%

CCNc1nc(Cl)nc(NC(C)C)n1 [Compound B2.1, atrazine]
pest or weed control at 540 g/ha (Avena fatua (AVENA); Avena fatua, Dosage 540 g ai/ha, read-out: Activity against AVEFA found): 50% | pest or weed control at 540 g/ha ([1]; Dosage 540 g ai/ha, read-out: Activity against IPOMEA found): 25%

COC(=O)c1ccc(I)cc1S(=O)(=O)[N-]C(=O)Nc1nc(C)nc(OC)n1.[Na+] [Compound B5.7, iodosulfuron-methyl-sodium]
Activity against AVEFA found (Avena fatua (AVENA); Dosage 1 g ai/ha): 30% | Activity against IPOMEA found ([1]; Dosage 1 g ai/ha): 20%

CC(C)N(C(=O)COc1nnc(C(F)(F)F)s1)c1ccc(F)cc1 [Compound B1.4, flufenacet]
pest or weed control at 373 g/ha (Avena fatua (AVENA); Avena fatua, Dosage 373 g ai/ha, read-out: Activity against AVEFA found): 50% | pest or weed control at 373 g/ha ([1]; Dosage 373 g ai/ha, read-out: Activity against IPOMEA found): 25%

CCc1cnc(C2=NC(C)(C(C)C)C(=O)N2)c(C(=O)O)c1 (stereo not drawn) [Compound B5.6, imazethapyr]
pest or weed control at 30 g/ha (Avena fatua (AVENA); Avena fatua, Dosage 30 g ai/ha, read-out: Activity against AVEFA found): 10% | pest or weed control at 30 g/ha ([1]; Dosage 30 g ai/ha, read-out: Activity against IPOMEA found): 25%

CCc1cccc(C)c1N(C(=O)CCl)C(C)COC (stereo not drawn) [Compound B1.5, metolachlor]
pest or weed control at 960 g/ha (Avena fatua (AVENA); Avena fatua, Dosage 960 g ai/ha, read-out: Activity against AVEFA found): 20% | pest or weed control at 960 g/ha ([1]; Dosage 960 g ai/ha, read-out: Activity against IPOMEA found): 13%

COc1c(Cl)ccc(Cl)c1C(=O)O [Compound B4.1, dicamba]
pest or weed control at 80 g/ha (Avena fatua (AVENA); Avena fatua, Dosage 80 g ai/ha, read-out: Activity against AVEFA found): 10% | pest or weed control at 80 g/ha ([1]; Dosage 80 g ai/ha, read-out: Activity against IPOMEA found): 25%
